These results are taken from US4985447A, “Certain benzoquinones, naphthoquinones and derivatives thereof which exhibit thromboxane A2 synthetase inhibition or receptor antagonism and the like” (Takeda Chemical Industries, Ltd., priority 1986, dated 1991).

The target in one assay is T1, 5-lipoxygenase (Rattus norvegicus, UniProt P12527).
T1 construct: endogenous in cells; host or cells: RBL-1 cells (rat basophilic leukemia)
T1 sequence (P12527 1-673): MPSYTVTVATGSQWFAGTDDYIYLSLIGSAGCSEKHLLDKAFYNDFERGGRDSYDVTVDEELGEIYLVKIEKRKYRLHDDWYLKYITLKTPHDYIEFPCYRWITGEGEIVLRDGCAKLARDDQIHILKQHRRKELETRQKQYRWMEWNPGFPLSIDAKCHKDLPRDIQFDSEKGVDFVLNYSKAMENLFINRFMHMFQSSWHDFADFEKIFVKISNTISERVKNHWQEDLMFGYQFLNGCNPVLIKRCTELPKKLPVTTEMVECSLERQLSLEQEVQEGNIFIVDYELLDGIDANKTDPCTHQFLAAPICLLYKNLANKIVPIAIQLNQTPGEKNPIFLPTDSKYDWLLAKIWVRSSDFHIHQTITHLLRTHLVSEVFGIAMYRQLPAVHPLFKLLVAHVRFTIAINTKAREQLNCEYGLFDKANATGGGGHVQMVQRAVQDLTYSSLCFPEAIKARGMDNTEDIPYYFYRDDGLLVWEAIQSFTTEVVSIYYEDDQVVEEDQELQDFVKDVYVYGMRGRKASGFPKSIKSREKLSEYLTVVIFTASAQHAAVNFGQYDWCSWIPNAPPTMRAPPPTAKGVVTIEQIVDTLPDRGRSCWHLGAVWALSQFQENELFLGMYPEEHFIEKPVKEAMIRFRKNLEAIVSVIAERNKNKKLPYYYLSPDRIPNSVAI
Briefly: Inhibition of 5-lipoxygenase (production of 5-HETE in RBL-1 cells). It is filed as cell-based, rat (RBL-1, rat basophilic leukemia cells). To be noted: for inhibition at 1 µM: 10^-6 M; for inhibition at 0.1 µM: 10^-7 M. The procedure:
Inhibition of 5-lipoxygenase
10^7 RBL-1 cells (rat basophilic leukemia cells) were suspended in 0.5 ml of MCM (mast cell medium ). To the suspension was subsequently added a solution consisting of 0.5 ml of MCM, 50 μg of arachidonic acid, 10 μg of A-23187 (calcium ionophore, Eli Lilly), and a solution of a quinone compound in ethanol at the final concentration of 1 μM, 0.1 μM, 0.01 μM or 0.001 μM of the test compound was added and allowed to react at 37° C. for 20 minutes. After the reaction, 4 ml of ethanol containing 1,4-dimethoxy-2-methyl-3-(3-methoxypropyl)naphthalene as an internal standard were added, mixed well by shaking, and kept at room temperature for 10 minutes. Then the mixture was centrifuged for 10 minutes (2000 rpm), and the supernatant was separated. The supernatant was concentrated to dryness under reduced pressure. To the concentrate, 0.5 ml of 60% aqueous methanol was added. One hundred μl of this solution was subjected to high performance liquid chromatography for quantitative analysis of 5-HETE (5-hydroxyeicosatetraenoic acid). The amount of 5-HETE was analyzed by measurement of the absorbance at […] with a UV absorption monitor.
Inhibitory effect (IE) of production of 5-HETE is expressed by (1-b/a)×100, wherein a is the peak height or the area corrected with the peak due to the internal standard in the absence of the quinone compound, and b is the peak hight or peak area corrected with the peak due to the internal standard in the presence of the quinone compound.

Assay [1] has as its target T2, Thromboxane A2 (TXA2) synthetase (Equus caballus, UniProt A0A9L0T8T9).
T2 sequence (A0A9L0T8T9 2-534): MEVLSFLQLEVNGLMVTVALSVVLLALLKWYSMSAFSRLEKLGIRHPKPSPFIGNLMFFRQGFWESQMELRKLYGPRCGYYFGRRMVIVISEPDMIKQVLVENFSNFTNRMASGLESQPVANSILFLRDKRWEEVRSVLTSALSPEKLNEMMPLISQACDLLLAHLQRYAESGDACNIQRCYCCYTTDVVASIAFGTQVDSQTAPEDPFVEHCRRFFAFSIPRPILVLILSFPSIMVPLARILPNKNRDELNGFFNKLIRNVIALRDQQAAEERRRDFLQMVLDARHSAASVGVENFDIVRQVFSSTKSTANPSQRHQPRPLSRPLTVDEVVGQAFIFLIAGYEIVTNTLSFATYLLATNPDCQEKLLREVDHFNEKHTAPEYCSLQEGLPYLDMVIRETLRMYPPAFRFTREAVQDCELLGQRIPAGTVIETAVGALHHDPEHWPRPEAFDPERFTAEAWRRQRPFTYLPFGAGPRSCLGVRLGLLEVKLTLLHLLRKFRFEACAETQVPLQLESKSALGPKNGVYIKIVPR
Briefly: Inhibition of Thromboxane A2 (TXA2) synthetase (horse platelet microsome). It is filed as biochemical. To be noted: read-out: Inhibition of Thromboxane A2 (TXA2) synthetase. How it is done: Inhibition of Thromboxane A2 (TXA2) synthetase
(§1) As a preparation of TXA2 synthetase, horse platelet microsome treated with indomethacin (indomethacin-treated horse platelet microsome: IPM) according to the method of Needleman et al. (Science 193 163, 1979) was used. To 60 μl of the solution of IPM in 50 mM Tris buffer(pH 7.5) (containing 140 μg on the protein basis), 60μof a solution containing a drug at a variable concentration was added and kept still at room temperature for 5 minutes. One hundred μl of this mixture was taken, to which 20 μl of a buffer containing 30 ng cf prostaglandin H2 (PGH2) with ice-cooling and kept still at 0° C. for 5 minutes to produce thromboxane A2 (TXA2). The reaction was stopped by addition of 500 μl of Tris buffer, and 50 μl of the resultant solution was subjected to radioimmunoassay of thromboxane B2 (TXB2), a stable metabolite of TXA2 [Shibouta et al. Biochem. Pharmacol. 28 3601, 1979]. The rate of inhibition (%) of TXA2 synthetase was determined from the difference in TXB2 productivity between the untreated group and the treated group.
as §1, with “60 μl of” for “60μof”, “of” for “cf”

For assay [2], the system named is lipid peroxide in rat brain homogenate. Put plainly: Inhibition of production of lipid peroxide in rat brain homogenate. Format: biochemical, rat (Sprague-Dawley). How it is done: Procedure: Sprague-Dawley rats (male, 9-15 weeks old) anesthetized with pentobarbital (50 mg/kg, intraperitoneal administration) were venesected and the brain tissue was resected. The tissue was homogenized in phosphate buffer (pH 7.4), and used as a 5% homogenate (on weight basis). The brain homogenate was allowed to react at 37° C. for 1 hour, and the amount of lipid peroxide produced was determined with the thiobarbituric acid method according to the method of Okawa et al. (Analytical Biochem 95 551, 1979). The drug was added to the 5% homogenate before the reaction at 37° C. for 1 hour so that the final concentration might be 5×10^-7 or 10^-6 M. Inhibition of production of lipid peroxide was expressed as the rate of inhibition in % of the amount produced in the solvent(DMSO)-treated group.

Each structure is given as a SMILES string. Where two headings read alike, the source gives them in different places.

Take `CC1=C(C)C(=O)C(C(CCCCC(=O)O)c2cccnc2)=C(C)C1=O` (centres unmarked) [compound 10]: the inhibition – broadly, how much of the control response was suppressed – at 1 µM was 90% against 5-lipoxygenase and 67% in assay [1] (10^-6 M). For the same molecule, the inhibition at 0.1 µM against 5-lipoxygenase came out at 52%; in assay [1] (10^-7 M), 24%. The “Inhibition of production of lipid peroxide in rat brain homogenate” value (from here on “Inhibition … in rat brain homogenate”) is recorded as 13% in assay [2] (5 × 10^-7 M) and 100% in assay [2] (10^-6 M).

On to `CC1=C(C)C(=O)C(Cc2cccnc2)=C(C)C1=O` [Compound No. 14], for which the results for the inhibition at 1 µM (on 5-lipoxygenase; in assay [1] (10^-6 M)) were 92% and 61%, respectively. Moreover, the results for the inhibition at 0.1 µM (at 5-lipoxygenase; in assay [1] (10^-7 M)) were 80% and 35%, respectively. Besides, the “Inhibition … in rat brain homogenate” value in assay [2] (5 × 10^-7 M) is reported as 46%; in assay [2] (10^-6 M), 100%.

As to `CC(=O)OCCCCCC(C1=C(C)C(=O)C(C)=C(C)C1=O)c1cccnc1` (centres unmarked) [compound 12], the inhibition at 1 µM on 5-lipoxygenase amounted to 91%; in assay [1] (10^-6 M), 56%. The inhibition at 0.1 µM was 67% against 5-lipoxygenase and 22% in assay [1] (10^-7 M). Further, the “Inhibition … in rat brain homogenate” value was 15% in assay [2] (5 × 10^-7 M) and 100% in assay [2] (10^-6 M).

As to `CCC(C1=C(C)C(=O)C(C)=C(C)C1=O)c1cccnc1` (centres unmarked) [compound 15], the inhibition at 1 µM against 5-lipoxygenase amounted to 91%; in assay [1] (10^-6 M), 76%. In addition, the inhibition at 0.1 µM on 5-lipoxygenase amounted to 57%; in assay [1] (10^-7 M), 15%. Further, the “Inhibition … in rat brain homogenate” value amounted to 52% in assay [2] (5 × 10^-7 M) and 100% in assay [2] (10^-6 M).

For `CCCCC(C1=C(C)C(=O)C(C)=C(C)C1=O)c1cccnc1` (centres unmarked) [Compound No. 7, 2-[1-(3-pyridyl)pentyl]-3,5,6-trimethyl-1,4-benzoquinone], the inhibition at 1 µM is 86% at 5-lipoxygenase and 32% in assay [1] (10^-6 M). Also, 0.1 µM produced 35% inhibition against 5-lipoxygenase. Besides, the “Inhibition … in rat brain homogenate” value is given as 26% in assay [2] (5 × 10^-7 M) and 100% in assay [2] (10^-6 M).

On to `CC1=C(C)C(=O)C(C(c2ccccc2)c2cccnc2)=C(C)C1=O` (centres unmarked) [Compound No. 2, 3,5,6-trimethyl-2-[phenyl-(3-pyridyl)methyl]-1,4-benzoquinone], for which the inhibition at 1 µM on 5-lipoxygenase is 85%; in assay [1], 89%. The inhibition at 0.1 µM against 5-lipoxygenase came out at 60%; in assay [1] it was 45%. Also, the entries for the “Inhibition … in rat brain homogenate” value in assay [2] (5 × 10^-7 M) and in assay [2] (10^-6 M) were 32% and 100%, respectively.

In the case of `CC1=C(C)C(=O)C(C(CCCCCO)c2cccnc2)=C(C)C1=O` (centres unmarked) [compound 11], the inhibition at 1 µM at 5-lipoxygenase is 88%; in assay [1] (10^-6 M), 67%. Besides, the inhibition at 0.1 µM against 5-lipoxygenase stood at 61%; in assay [1] (10^-7 M), 13%. Moreover, the “Inhibition … in rat brain homogenate” value in assay [2] (5 × 10^-7 M) is given as 15%; in assay [2] (10^-6 M), 100%.

In the case of `CC(=O)OCCCCC(C1=C(C)C(=O)C(C)=C(C)C1=O)c1cccnc1` (centres unmarked) [compound 9], the results for the inhibition at 1 µM (on 5-lipoxygenase; in assay [1] (10^-6 M)) were 90% and 54%, respectively. Besides, the inhibition at 0.1 µM was 62% at 5-lipoxygenase and 18% in assay [1] (10^-7 M). Also, the “Inhibition … in rat brain homogenate” value worked out at 17% in assay [2] (5 × 10^-7 M) and 100% in assay [2] (10^-6 M).

With `CC(=Cc1ccc(C(C2=C(C)C(=O)C(C)=C(C)C2=O)c2cccnc2)cc1)C(=O)O` (stereo not drawn) [Compound No. 5, 4-[3,5,6-trimethyl-1,4-benzoquinon-2-yl(3-pyridyl)methyl]-α-methylcinnamic acid], the inhibition at 1 µM against 5-lipoxygenase came to 73%; in assay [1] (10^-6 M) it was 65%. Further, the inhibition at 0.1 µM at 5-lipoxygenase came out at 28%; in assay [1] (10^-7 M) it was 7%. For the same molecule, the “Inhibition … in rat brain homogenate” value is 29% in assay [2] (5 × 10^-7 M) and 100% in assay [2] (10^-6 M).

Take `CC1=C(C)C(=O)C(C(CCCCO)c2cccnc2)=C(C)C1=O` (centres unmarked) [compound 8]: the inhibition at 1 µM is 88% against 5-lipoxygenase and 37% in assay [1] (10^-6 M). In addition, the inhibition at 0.1 µM turned out to be 63% against 5-lipoxygenase and 6% in assay [1] (10^-7 M). Also, the “Inhibition … in rat brain homogenate” value in assay [2] (5 × 10^-7 M) is given as 20%; in assay [2] (10^-6 M), 100%.

For `CCCCCCC(C1=C(C)C(=O)C(C)=C(C)C1=O)c1cccnc1` (centres unmarked) [Compound No. 16, 1-(3,5,6-trimethyl-1,4-benzoquinon-2-yl)-1-(3-pyridyl)heptane], the inhibition at 1 µM on 5-lipoxygenase stood at 96%; in assay [1] (10^-6 M), 49%. Further, the inhibition at 0.1 µM against 5-lipoxygenase amounted to 77%; in assay [1] (10^-7 M), 6%. Also, the “Inhibition … in rat brain homogenate” value in assay [2] (5 × 10^-7 M) came to 44%; in assay [2] (10^-6 M), 100%.
